Laboratory results published in patent US4130559A, “Method for the preparation of 6-aminopenicillinic acid derivatives” (priority 1977, dated 1978).
Values after ≈ are worked out from the molar mass of the structure shown. Read-outs that look alike come from different tables or passages of the source.

Columns and labels:
[1] = Acid resistance (half-life period); format: physicochemical
Protocol: (§1) All compounds of this group were prepared in the form of sodium salts. Bactericidal activity, degree of hydrolysis with staphylococc penicillinase and acid resistance of the penicillins were determined.

Staph. aureus 209p = assay: Minimal bacteriostatic concentration; format: cell-based; details: Staphylococcus aureus, sodium salts
Protocol: as §1

Staph. albus = assay: Minimal bacteriostatic concentration; format: cell-based; details: sodium salts
Protocol: as §1

Myco smegmatis = assay: Minimal bacteriostatic concentration; format: cell-based; details: sodium salts
Protocol: as §1

[2] = system: Staph. aureus 209p (adapted to benzylpenicillin); assay: Minimal bacteriostatic concentration; format: cell-based; details: Staphylococcus aureus, read-out: Minimal Bacteriostatic Concentration
Protocol: as §1

Ps.aeruginosa = assay: Minimal bacteriostatic concentration; format: cell-based; details: Pseudomonas aeruginosa, sodium salts
Protocol: as §1

Prot.vulgaris = assay: Minimal bacteriostatic concentration; format: cell-based; details: Proteus vulgaris, sodium salts
Protocol: as §1

E.coli O-55 = assay: Minimal bacteriostatic concentration; format: cell-based; details: Escherichia coli
Protocol: as §1

E.typhi = assay: Minimal bacteriostatic concentration; format: cell-based; details: read-out: Minimal Bacteriostatic Concentration
Protocol: as §1

Vibrion Metschnicoff = assay: Minimal bacteriostatic concentration; format: cell-based; details: read-out: Minimal Bacteriostatic Concentration
Protocol: as §1

B.Subtitis ATCC6633 = assay: Minimal bacteriostatic concentration; format: cell-based; details: sodium salts
Protocol: as §1

Strept. pyrogenes = assay: Minimal bacteriostatic concentration; format: cell-based; details: sodium salts
Protocol: as §1

Sh.dysenteriae Flexneri = assay: Minimal bacteriostatic concentration; format: cell-based; details: Shigella dysenteriae, read-out: Minimal Bacteriostatic Concentration
Protocol: as §1

[3] = molecular target: T1, staphylococc penicillinase (Staphylococcus aureus, UniProt P00807); assay: Hydrolysis/inactivation by staphylococc penicillinase; format: biochemical; details: for Quantity of inactivated units of compounds under the action of 1 unit of staphylococc penicillinase: Table 5
T1 sequence (P00807 25-281): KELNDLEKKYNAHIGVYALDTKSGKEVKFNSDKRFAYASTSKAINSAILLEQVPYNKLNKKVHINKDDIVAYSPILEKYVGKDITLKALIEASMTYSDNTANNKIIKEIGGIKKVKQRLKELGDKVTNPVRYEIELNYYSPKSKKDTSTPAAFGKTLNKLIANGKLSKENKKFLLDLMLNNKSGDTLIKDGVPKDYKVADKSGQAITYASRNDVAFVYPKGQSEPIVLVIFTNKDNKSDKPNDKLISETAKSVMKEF
Protocol: as §1
The substitution of propoxy radical for iso-radical in this position is not accompanied by areduction of penicillin stability against penicillinase which is not observed in the orto- and para-positions. During the subsequent hours of inactivation the rate of hydrolysis of penicillins slightly increases. However, even when observed in dynamics, their stability against penicillianase still persists during 4-hour-inactivation.

in vivo = details: mouse, iv
[4] = molecular target: T1, staphylococc penicillinase; details: cited from earlier work
[5] = acid ph 1.3, pH 1.3, under conditions of our experiments, read-out: half-life period
[6] = O55, E.coli O-55, sodium salts, read-out: Minimal Bacteriostatic Concentration
[7] = acid ph 1.3, Temperature 37° C, pH 1.3, Table 1, cyclopentyl series, read-out: τ1/2 half-life period (acid resistance)
[8] = O55, read-out: Minimal Bacteriostatic Concentration
[9] = Vibrion Metschnicoff, sodium salts

Row | SMILES | half-life [1, 5] [h] | MIC (Staph. aureus 209p) [µg/mL] | MIC (Staph. albus) [µg/mL] | MIC (Myco smegmatis) [µg/mL] | MIC [2] [µg/mL] | MIC (Ps.aeruginosa) [µg/mL] | MIC (Prot.vulgaris) [µg/mL] | MIC (E.coli O-55; [6]) [µg/mL] | MIC (E.typhi) [µg/mL] | MIC (Vibrion Metschnicoff) [µg/mL] | MIC (B.Subtitis ATCC6633) [µg/mL] | MIC (Strept. pyrogenes) [µg/mL] | MIC (Sh.dysenteriae Flexneri) [µg/mL] | Quantity of inactivated units of compounds under the action of 1 unit of staphylococc penicillinase [3] [units] | stability against penicillinase ([3]; during the first hour after inactivation, 60 min) [%] | MTD (in vivo) [mg/kg] | half-life [1, 7] [h] | MIC (E.coli O-55; [8]) [µg/mL] | MIC (Vibrion Metschnicoff; [9]) [µg/mL] | penicillinase resistance (background statement) [4]
1 | CC1(C)SC2C(NC(=O)C3(c4ccccc4)CCCC3)C(=O)N2C1C(=O)O (centres unmarked) [Compound I (Table 1), 1-Phenylcyclopentyl-1-Penicillin] | 0.433 | 0.048 | 0.048 | > 500 | > 500 | > 500 | 250 | 500 | 62.5 (≈ 161 µM) | 0.24 (≈ 0.618 µM) | 0.09 | 0.012 | 125 (≈ 322 µM) | 0 | 100 | 500 | – | – | – | –
2 | COc1ccccc1C1(C(=O)NC2C(=O)N3C2SC(C)(C)C3C(=O)O)CCCC1 (centres unmarked) [Compound II (Table 1)] | – | 0.9 | 0.9 | > 500 | > 500 | > 500 | 500 | 250 | 62.5 (≈ 149 µM) | – | 3.9 | 0.78 | 62.5 (≈ 149 µM) | 28.8 | – | 2000 | 3.12 | – | – | –
3 | CC1(C)S[C@@H]2[C@H](NC(=O)Cc3ccccc3)C(=O)N2[C@H]1C(=O)O [Benzyl Penicillin, benzylpenicillin, reference compound] | 0.035 | 0.012 | 0.006 | > 500 | > 500 | > 500 | 1.56 | – | 0.39 (≈ 1.17 µM) | – | 0.048 | 0.003 | 3.12 (≈ 9.33 µM) | – | – | – | – | 31.2 (≈ 93.3 µM) | 0.78 | –
4 | CCCCOc1ccccc1C1(C(=O)NC2C(=O)N3C2SC(C)(C)C3C(=O)O)CCCC1 (centres unmarked) [Compound VI (Table 1), 1-(o-Butoxyphenyl)Cyclopentyl-1-Pencillin] | – | 0.39 | 0.19 | > 500 | > 500 | > 500 | 500 | 500 | 125 (≈ 271 µM) | – | 15.6 | 0.39 | 250 (≈ 543 µM) | 16.6 | – | 1000 | 0.247 | – | 1.56 | –
5 | COc1cccc(C2(C(=O)NC3C(=O)N4C3SC(C)(C)C4C(=O)O)CCCC2)c1 (centres unmarked) [Compound VII (Table 1)] | – | 0.39 | 0.39 | > 500 | > 500 | > 500 | 125 | 250 | – | – | 1.56 | 0.39 | 125 (≈ 299 µM) | 14.2 | – | 2500 | 4.8 | – | – | –
6 | CC(C)Oc1cccc(C2(C(=O)NC3C(=O)N4C3SC(C)(C)C4C(=O)O)CCCC2)c1 (centres unmarked) [Compound X (Table 1)] | – | 0.39 | 0.19 | > 500 | > 500 | > 500 | 250 | – | 15.6 (≈ 34.9 µM) | – | 7.8 | 0.19 | 62.5 (≈ 140 µM) | 27.5 | – | 1500 | 0.432 | 250 (≈ 560 µM) | 3.9 | –
7 | CCCOc1ccccc1C1(C(=O)NC2C(=O)N3C2SC(C)(C)C3C(=O)O)CCCC1 (centres unmarked) [Compound IV (Table 1)] | – | 0.19 | 0.39 | > 500 | > 500 | > 500 | 500 | > 125 | 62.5 (≈ 140 µM) | – | 15.6 | 0.39 | 125 (≈ 280 µM) | 20.45 | – | 1500 | 0.248 | – | 0.9 | –
8 | COc1cccc(OC)c1C(=O)N[C@@H]1C(=O)N2[C@@H]1SC(C)(C)[C@@H]2C(=O)O [methycillin] | – | – | – | – | – | – | – | – | – | – | – | – | – | – | – | – | – | – | – | penicillinase resistant
9 | CC(C)Oc1ccccc1C1(C(=O)NC2C(=O)N3C2SC(C)(C)C3C(=O)O)CCCC1 (centres unmarked) [Compound V (Table 1)] | – | 0.39 | 0.39 | > 500 | > 500 | > 500 | 500 | 500 | 125 (≈ 280 µM) | – | 7.8 | 0.78 | 250 (≈ 560 µM) | 12.0 | – | 1000 to 1500 | 0.172 | – | 0.9 | –
10 | CCCOc1cccc(C2(C(=O)NC3C(=O)N4C3SC(C)(C)C4C(=O)O)CCCC2)c1 (centres unmarked) [Compound IX (Table 1), 1-(m-propoxyphenyl)Cyclopentyl-1-Penicillin] | – | 0.39 | 0.19 | > 500 | > 500 | > 500 | 125 | – | 15.6 (≈ 34.9 µM) | – | 0.9 | 0.39 | 62.5 (≈ 140 µM) | 10.6 | – | 1500 | 3.7 | 250 (≈ 560 µM) | 3.9 | –
11 | CCOc1ccccc1C1(C(=O)NC2C(=O)N3C2SC(C)(C)C3C(=O)O)CCCC1 (centres unmarked) [Compound III (Table 1)] | – | 0.78 | 0.39 | > 500 | > 500 | > 500 | 500 | 500 | 62.5 (≈ 144 µM) | – | 7.8 | 0.78 | 125 (≈ 289 µM) | 20.5 | – | 1000 | 1.7 | – | 0.9 | –
12 | CCOc1ccc(C2(C(=O)NC3C(=O)N4C3SC(C)(C)C4C(=O)O)CCCC2)cc1 (centres unmarked) [Compound XIII (Table 1), 1-(n-Ethoxyphenyl)Cyclopentyl-1-Penicillin] | – | 0.19 | 0.09 | > 500 | – | > 500 | 62.5 | – | 7.8 (≈ 18 µM) | – | 0.24 | 0.048 | 31.2 (≈ 72.1 µM) | 24.9 | – | 1500 | 1.65 | 62.5 (≈ 144 µM) | 0.19 | –
13 | CCOc1cccc(C2(C(=O)NC3C(=O)N4C3SC(C)(C)C4C(=O)O)CCCC2)c1 (centres unmarked) [Compound VIII (Table 1)] | – | 0.39 | 0.19 | > 500 | > 500 | > 500 | 250 | – | 31.2 (≈ 72.1 µM) | – | 0.9 | 0.39 | 125 (≈ 289 µM) | 10.0 | – | 1500 | 3.16 | 250 (≈ 578 µM) | 3.9 | –
